Earlier results on one substance are cited in US8097267B2, “Moisture resistant container systems for rapidly bioavailable dosage forms” (APR Applied Pharma Research s.a., priority 2006, dated 2012).

For the series the following is noted: acidic environment.

Take “[(2,6-dichloro-anilino)-2-phenyl]-2-acetic acid [diclofenac potassium]”: the precipitation result is on record as “tendency to precipitate in an acidic environment”.
